Test results from patent US20240409585A1, “MACROCYCLIC IMMUNOMODULATORS” (priority 2021, published 2024).
Bridge positions count the residues as written; N and C are the ends. Square brackets hold non-standard residues; d marks the D form. Peptide text beside a SMILES is read from it. * marks the point of attachment. ξ: configuration not given here. Tyr(3-NO2) = N[C@@H](Cc1ccc(O)c([N+](=O)[O-])c1)C(=O)O; Phe(4-COOH) = N[C@@H](Cc1ccc(C(=O)O)cc1)C(=O)O; Phe(4-CH2NH2) = NCc1ccc(C[C@H](N)C(=O)O)cc1; Bip = N[C@@H](Cc1ccc(-c2ccccc2)cc1)C(=O)O; Phe(3-OMe) = COc1cccc(C[C@H](N)C(=O)O)c1; Phe(4-CN) = N#Cc1ccc(C[C@H](N)C(=O)O)cc1; Phe(3-Me) = Cc1cccc(C[C@H](N)C(=O)O)c1; Phe(2-Me) = Cc1ccccc1C[C@H](N)C(=O)O; Val(3-OH) = CC(C)(O)[C@H](N)C(=O)O; 2Pal = N[C@@H](Cc1ccccn1)C(=O)O; 4Pal = N[C@@H](Cc1ccncc1)C(=O)O; Cha = N[C@@H](CC1CCCCC1)C(=O)O; Cit = NC(=O)NCCC[C@H](N)C(=O)O; Ile(3ξ) = CCC(C)[C@H](N)C(=O)O; dChg = N[C@@H](C(=O)O)C1CCCCC1; Thr(3ξ) = CC(O)[C@H](N)C(=O)O; Carboxymethyl = O=C(O)C*; NMeA = CN[C@@H](C)C(=O)O; Orn = NCCC[C@H](N)C(=O)O; Pra = C#CC[C@H](N)C(=O)O; Dab = NCC[C@H](N)C(=O)O; Dap = NC[C@H](N)C(=O)O

The compounds below were run against T1, PE-labeled human PD-L1-Ig binding to Jurkat cell line over-expressing human PD-1 (Jurkat-PD-1) (Homo sapiens, UniProt Q15116) (assay: Jurkat-PD-1 Cell Binding High-Content Screening Assay (CBA): Method 1). Conditions: Jurkat-hPD-1 cells, PE-labeled PD-L1-Ig 20 nM final; read-out: Jurkat HPDL1 PD1 IC50 (uM) (Method 1).
T1 construct: expressed in transfected cells; host or cells: Jurkat
T1 sequence (Q15116 25-288): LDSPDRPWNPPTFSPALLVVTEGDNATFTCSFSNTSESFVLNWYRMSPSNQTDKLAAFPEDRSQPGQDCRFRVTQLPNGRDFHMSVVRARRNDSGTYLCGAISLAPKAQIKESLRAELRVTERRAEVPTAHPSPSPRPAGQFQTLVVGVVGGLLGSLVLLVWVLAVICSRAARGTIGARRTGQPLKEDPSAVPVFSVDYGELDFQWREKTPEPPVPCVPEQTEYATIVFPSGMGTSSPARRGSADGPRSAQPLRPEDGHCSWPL

Structure (SMILES) | IC50
CC(C)C[C@@H]1NC(=O)[C@H](Cc2c[nH]c3ccccc23)NC(=O)[C@H](CC(=O)O)NC(=O)[C@H](Cc2ccc(O)cc2)NC(=O)[C@H](Cc2ccccc2)NC(=O)CSC[C@@H](C(=O)N[C@@H](C)C(N)=O)NC(=O)[C@H](CO)NC(=O)[C@H](C(C)C)NC(=O)[C@H](CC(C)C)NC(=O)[C@H](CC(N)=O)NC(=O)[C@@H](CC(C)C)NC(=O)[C@H](C)N(C)C(=O)[C@H](CCCNC(=N)N)NC(=O)[C@H](Cc2ccc(-c3ccccc3)cc2)NC1=O [Compound 1775] ({CH2CO}-FYDWL[Bip]R[NMeA][dL]NLVSCA-NH2; thioether N-14) | 0.05 µM
CC(C)C[C@@H]1NC(=O)[C@H](CCN)NC(=O)[C@@H](CC(C)C)NC(=O)[C@H](C)N(C)C(=O)[C@H](CCCNC(=N)N)NC(=O)[C@H](Cc2ccc(-c3ccccc3)cc2)NC(=O)[C@H](C(C)C)NC(=O)[C@H](Cc2c[nH]c3ccccc23)NC(=O)[C@H](CC(=O)O)NC(=O)[C@H](Cc2ccc(O)c([N+](=O)[O-])c2)NC(=O)[C@H](CC(N)=O)NC(=O)CSC[C@@H](C(=O)N[C@@H](C)C(N)=O)NC(=O)[C@H]([C@@H](C)O)NC(=O)[C@H](C(C)C)NC1=O [Compound 1160] ({CH2CO}-N[Tyr(3-NO2)]DWV[Bip]R[NMeA][dL][Dab]LVTCA-NH2; thioether N-14) | 0.03 µM
CC(C)C[C@H]1NC(=O)[C@H](C)N(C)C(=O)[C@H](C(C)C)NC(=O)[C@H](Cc2ccc(-c3ccccc3)cc2)NC(=O)[C@H](C(C)C)NC(=O)[C@H](Cc2c[nH]c3ccccc23)NC(=O)[C@H](CC(=O)O)NC(=O)[C@H](Cc2ccncc2)NC(=O)[C@H](Cc2ccc(CN)cc2)NC(=O)CSC[C@@H](C(N)=O)NC(=O)[C@H](CO)NC(=O)[C@H](C(C)C)NC(=O)[C@H](CC2CCCCC2)NC(=O)[C@H](CC(N)=O)NC1=O [Compound 2242] ({CH2CO}-[Phe(4-CH2NH2)][4Pal]DWV[Bip]V[NMeA][dL]N[Cha]VSC-NH2; thioether N-14) | 0.03 µM
COc1cccc(C[C@@H]2NC(=O)[C@H](CC(N)=O)NC(=O)CSC[C@@H](C(=O)N[C@@H](C)C(N)=O)NC(=O)[C@H]([C@@H](C)O)NC(=O)[C@H](C(C)C)NC(=O)[C@H](CC(C)C)NC(=O)[C@H](CCN)NC(=O)[C@@H](CC(C)C)NC(=O)[C@H](C)N(C)C(=O)[C@H](CCCNC(=N)N)NC(=O)[C@H](Cc3ccc(-c4ccccc4)cc3)NC(=O)[C@H](C(C)C)NC(=O)[C@H](Cc3c[nH]c4ccccc34)NC(=O)[C@H](CC(=O)O)NC2=O)c1 [Compound 1307] ({CH2CO}-N[Phe(3-OMe)]DWV[Bip]R[NMeA][dL][Dab]LVTCA-NH2; thioether N-14) | 0.1 µM
COc1cccc(C[C@@H]2NC(=O)[C@H](CN)NC(=O)CSC[C@@H](C(=O)N[C@@H](C)C(N)=O)NC(=O)[C@H]([C@@H](C)O)NC(=O)[C@H](C(C)C)NC(=O)[C@H](CC(C)C)NC(=O)[C@H](CCN)NC(=O)[C@@H](CC(C)C)NC(=O)[C@H](C)N(C)C(=O)[C@H](C(C)C)NC(=O)[C@H](Cc3ccc(-c4ccccc4)cc3)NC(=O)[C@H](C(C)C)NC(=O)[C@H](Cc3c[nH]c4ccccc34)NC(=O)[C@H](CC(=O)O)NC2=O)c1 [Compound 1427] ({CH2CO}-[Dap][Phe(3-OMe)]DWV[Bip]V[NMeA][dL][Dab]LVTCA-NH2; thioether N-14) | 0.11 µM
Cc1ccccc1C[C@@H]1NC(=O)[C@H](CC(=O)O)NC(=O)[C@H](Cc2ccc(O)cc2)NC(=O)[C@H](CC(N)=O)NC(=O)CSC[C@@H](C(=O)N[C@@H](C)C(N)=O)NC(=O)[C@H]([C@@H](C)O)NC(=O)[C@H](C(C)C)NC(=O)[C@H](CC(C)C)NC(=O)[C@H](CCCNC(=N)N)NC(=O)[C@@H](CC(C)C)NC(=O)[C@H](C)N(C)C(=O)[C@H](CCCNC(=N)N)NC(=O)[C@H](Cc2ccc(-c3ccccc3)cc2)NC(=O)[C@H](C(C)C)NC1=O [Compound 1197] ({CH2CO}-NYD[Phe(2-Me)]V[Bip]R[NMeA][dL]RLVTCA-NH2; thioether N-14) | 0.36 µM
CC(C)C[C@@H]1NC(=O)[C@H](CCN)NC(=O)[C@@H](CC(C)C)NC(=O)[C@H](C)N(C)C(=O)[C@H](CCCNC(N)=O)NC(=O)[C@H](Cc2ccc(-c3ccccc3)cc2)NC(=O)[C@H](C(C)C)NC(=O)[C@H](Cc2c[nH]c3ccccc23)NC(=O)[C@H](CC(=O)O)NC(=O)[C@H](Cc2ccc(O)cc2)NC(=O)[C@H](CC(N)=O)NC(=O)CSC[C@@H](C(=O)N[C@@H](C)C(N)=O)NC(=O)[C@H](CCCN)NC(=O)[C@H](C(C)C)NC1=O [Compound 1232] ({CH2CO}-NYDWV[Bip][Cit][NMeA][dL][Dab]LV[Orn]CA-NH2; thioether N-14) | 0.12 µM
CC(C)C[C@@H]1NC(=O)[C@H](CCCNC(=N)N)NC(=O)[C@@H](CC(C)C)NC(=O)[C@H](C)N(C)C(=O)[C@H](CCCNC(=N)N)NC(=O)[C@H](Cc2ccc(-c3ccccc3)cc2)NC(=O)[C@H](C(C)C)NC(=O)[C@H](Cc2c[nH]c3ccccc23)NC(=O)[C@H](CC(=O)O)NC(=O)[C@H](Cc2ccc(C#N)cc2)NC(=O)[C@H](Cc2ccccc2)NC(=O)CSC[C@@H](C(=O)N[C@@H](C)C(N)=O)NC(=O)[C@H]([C@@H](C)O)NC(=O)[C@H](C(C)C)NC1=O [Compound 1100] ({CH2CO}-F[Phe(4-CN)]DWV[Bip]R[NMeA][dL]RLVTCA-NH2; thioether N-14) | 0.53 µM
CC(C)C[C@@H]1NC(=O)[C@H](CCN)NC(=O)[C@@H](CC(C)C)NC(=O)[C@H](C)N(C)C(=O)[C@H](CCCNC(N)=O)NC(=O)[C@H](Cc2ccc(-c3ccccc3)cc2)NC(=O)[C@H](C(C)C)NC(=O)[C@H](Cc2c[nH]c3ccccc23)NC(=O)[C@H](CC(=O)O)NC(=O)[C@H](Cc2ccc(O)cc2)NC(=O)[C@H](CC(N)=O)NC(=O)CSC[C@@H](C(=O)N[C@@H](CCC(=O)O)C(N)=O)NC(=O)[C@H](CO)NC(=O)[C@H](C(C)C)NC1=O [Compound 1233] ({CH2CO}-NYDWV[Bip][Cit][NMeA][dL][Dab]LVSCE-NH2; thioether N-14) | 0.05 µM
CCC(C)[C@@H]1NC(=O)[C@H](Cc2ccc(-c3ccccc3)cc2)NC(=O)[C@H](C(C)C)NC(=O)[C@H](Cc2c[nH]c3ccccc23)NC(=O)[C@H](CC(=O)O)NC(=O)[C@H](Cc2ccc(O)cc2)NC(=O)[C@H](CC(N)=O)NC(=O)CSC[C@@H](C(=O)N[C@@H](CC(=O)O)C(=O)N[C@@H](CCN)C(=O)O)NC(=O)[C@H](C(C)O)NC(=O)[C@H](C(C)C)NC(=O)[C@H](CC2CCCCC2)NC(=O)[C@H](CC(N)=O)NC(=O)[C@@H](CC(C)C)NC(=O)[C@H](C)N(C)C1=O (stereo partly drawn) [Compound 2002] ({CH2CO}-NYDWV[Bip][Ile(3ξ)][NMeA][dL]N[Cha]V[Thr(3ξ)]CD[Dab]-OH; thioether N-14) | 0.14 µM
CC(C)C[C@@H]1NC(=O)[C@H](CCN)NC(=O)[C@@H](CC(C)C)NC(=O)[C@H](C)N(C)C(=O)[C@H](CCCNC(N)=O)NC(=O)[C@H](Cc2ccc(-c3ccccc3)cc2)NC(=O)[C@H](C(C)C)NC(=O)[C@H](Cc2c[nH]c3ccccc23)NC(=O)[C@H](CC(=O)O)NC(=O)[C@H](Cc2ccc(C(=O)O)cc2)NC(=O)[C@H](Cc2ccccn2)NC(=O)CSC[C@@H](C(=O)N[C@@H](C)C(N)=O)NC(=O)[C@H]([C@@H](C)O)NC(=O)[C@H](C(C)C)NC1=O [Compound 1330] ({CH2CO}-[2Pal][Phe(4-COOH)]DWV[Bip][Cit][NMeA][dL][Dab]LVTCA-NH2; thioether N-14) | 0.04 µM
CC(C)C[C@@H]1NC(=O)[C@H](Cc2c[nH]c3ccccc23)NC(=O)[C@H](CC(=O)O)NC(=O)[C@H](Cc2ccc(O)cc2)NC(=O)[C@H](Cc2ccccc2)NC(=O)CSC[C@@H](C(=O)N[C@@H](C)C(N)=O)NC(=O)[C@H]([C@@H](C)O)NC(=O)[C@H](C(C)C)NC(=O)[C@H](CC(C)C)NC(=O)[C@H](CCN)NC(=O)[C@@H](C)NC(=O)[C@H](C)N(C)C(=O)[C@H](C(C)C)NC(=O)[C@H](Cc2ccc(-c3ccccc3)cc2)NC1=O [Compound 1478] ({CH2CO}-FYDWL[Bip]V[NMeA][dA][Dab]LVTCA-NH2; thioether N-14) | 0.02 µM
CC(C)C[C@@H]1NC(=O)[C@H](CCCNC(=N)N)NC(=O)[C@@H](C2CCCCC2)NC(=O)[C@H](C)N(C)C(=O)[C@H](CCCNC(=N)N)NC(=O)[C@H](Cc2ccc(-c3ccccc3)cc2)NC(=O)[C@H](C(C)C)NC(=O)[C@H](Cc2c[nH]c3ccccc23)NC(=O)[C@H](CC(=O)O)NC(=O)[C@H](Cc2ccc(O)cc2)NC(=O)[C@H](Cc2ccccc2)NC(=O)CSC[C@@H](C(=O)N[C@@H](C)C(N)=O)NC(=O)[C@H]([C@@H](C)O)NC(=O)[C@H](C(C)C)NC1=O [Compound 1061] ({CH2CO}-FYDWV[Bip]R[NMeA][dChg]RLVTCA-NH2; thioether N-14) | 0.1 µM
C#CC[C@H](NC(=O)[C@@H](C)NC(=O)[C@@H]1CSCC(=O)N[C@@H]([C@@H](C)O)C(=O)N[C@@H](Cc2ccc(OCC(=O)O)cc2)C(=O)N[C@@H](CC(=O)O)C(=O)N[C@@H](Cc2cccc(C)c2)C(=O)N[C@@H](Cc2ccc(OCC(=O)O)cc2)C(=O)N[C@@H](Cc2ccc(-c3ccccc3)cc2)C(=O)N[C@@H](Cc2ccc(OCC(=O)O)cc2)C(=O)N(C)[C@@H](C)C(=O)N[C@H](CC(C)C)C(=O)N[C@@H](CCN)C(=O)N[C@@H](CC2CCCCC2)C(=O)N[C@@H](C(C)(C)O)C(=O)N[C@@H](CCC(=O)O)C(=O)N1)C(N)=O [Compound 1945] ({CH2CO}-TY(Carboxymethyl)D[Phe(3-Me)]Y(Carboxymethyl)[Bip]Y(Carboxymethyl)[NMeA][dL][Dab][Cha][Val(3-OH)]EC[dA][Pra]-NH2; thioether N-14) | 0.93 µM
Cc1cccc(C[C@@H]2NC(=O)[C@H](CC(=O)O)NC(=O)[C@H](Cc3ccc(O)cc3)NC(=O)[C@H](CC(N)=O)NC(=O)CSC[C@@H](C(=O)N[C@@H](CCN)C(N)=O)NC(=O)[C@H]([C@@H](C)O)NC(=O)[C@H](C(C)(C)O)NC(=O)[C@H](CC3CCCCC3)NC(=O)[C@H](CCN)NC(=O)[C@@H](CC(C)C)NC(=O)[C@H](C)N(C)C(=O)[C@H](CCCNC(N)=O)NC(=O)[C@H](Cc3ccc(-c4ccccc4)cc3)NC(=O)[C@H](C(C)(C)O)NC2=O)c1 [Compound 1705] ({CH2CO}-NYD[Phe(3-Me)][Val(3-OH)][Bip][Cit][NMeA][dL][Dab][Cha][Val(3-OH)]TC[Dab]-NH2; thioether N-14) | 0.03 µM
